Experimental data as given in paper PMC11256175 (Bioengineering & Translational Medicine, 2024).
≈ marks a conversion by molar mass, not a printed value. Entries after “also recorded” stand apart in the source; their conditions may differ. Like-named read-outs stand apart in the source and are kept apart here. Values belong to the molecule of their own block, whether it stands above or below them.

Legend:
[1] = design: method as in earlier work; conditions: mice and rats; cited from earlier work
[2] = Equilibrium solubility of EV‐P in injectable oily vehicles (HPLC); format: physicochemical; conditions: for solubility at 3 days: 25°C, stored over 3 days, mean ± SD (n = 3)
Procedure: […] […] […] […] The EV‐P concentration in the sample was analyzed using Waters HPLC system (Model 515 pump, Model 486 UV‐VIS detector, and Model 717 plus autosampler, Waters, Milford, MA, USA) equipped with a reversed‐phase C18 column (4.6 × 150 mm, 5 μm, Shiseido). The mobile phase for EV‐P analysis consisted of 2‐propanol and deionized distilled water at a volume ratio of 6:4. The flow rate of the mobile phase and detection wavelength were 1.0 mL/min and 253 nm, respectively, and the elution time of EV‐P was 5.3 min. The calibration curve was linear in the range of 1–100 μg/mL and the limit of detection (LOD) and limit of quantitation (LOQ) values were calculated as 0.5 μg/mL and 1.5 μg/mL, respectively.

[3] = Dispersibility of EV‐P particles in oily vehicles (visual); format: physicochemical; conditions: after 3 days storage at 25°C, EV‐P 9.0 mg/mL
Procedure: Pulverized EV‐P powder (5 mg as EV) was added to injectable oil vehicles (1 mL) in an Eppendorf tube. The mixture was then vortexed for 10 min using a multi‐vortex (Vortex Genie 2, Scientific Industries, Chicago, IL, USA) and then shaken for 3 h at 25°C in a shaking incubator (model BF‐60SIRL, Bio Free, Seoul, Korea). Then, the dispersibility of EV‐P particles in different oily vehicles was visually evaluated. […] The EV‐P concentration in the sample was analyzed using Waters HPLC system (Model 515 pump, Model 486 UV‐VIS detector, and Model 717 plus autosampler, Waters, Milford, MA, USA) equipped with a reversed‐phase C18 column (4.6 × 150 mm, 5 μm, Shiseido). The mobile phase for EV‐P analysis consisted of 2‐propanol and deionized distilled water at a volume ratio of 6:4. The flow rate of the mobile phase and detection wavelength were 1.0 mL/min and 253 nm, respectively, and the elution time of EV‐P was 5.3 min. The calibration curve was linear in the range of 1–100 μg/mL and the limit of detection (LOD) and limit of quantitation (LOQ) values were calculated as 0.5 μg/mL and 1.5 μg/mL, respectively.

[4] = Solubility of EV‐P in phosphate buffer and dissolution medium; format: physicochemical
[5] = phosphate‐buffered saline [PBS], pH 7.4; cited from earlier work
[6] = design: method as in PMID 11672957; conditions: after SC or IM injection in pigs; cited from earlier work
[7] = design: method as in PMID 27067365; conditions: pretreatment and intermittent dosing of clodronate; cited from earlier work

Structure (SMILES): C=C1[C@H](CO)[C@@H](O)C[C@@H]1n1cnc2c(=O)[nH]c(N)nc21 [EV, entecavir]
Oral doses with minimal acute toxicity [1]: up to 200 mg/kg

EV‐P dissolved in OS ([2]; OS designed using tricaprylin and Labrafac, EV‐P concentration of 9.0 mg/mL): less than 1.0 % (w/v)
solubility at 3 days ([2]; in castor oil): 2100 µg/mL (≈ 4070 µM)
solubility at 3 days ([2]; in peanut oil): 1900 µg/mL (≈ 3680 µM)
solubility at 3 days ([2]; oil or lipid, thermodynamic from solid, in Labrafac PG): 110 ± 10 µg/mL (≈ 213 µM)
solubility at 3 days ([2]; oil or lipid, thermodynamic from solid, in Miglyol 812): 620 ± 120 µg/mL (≈ 1200 µM)
solubility at 3 days ([2]; oil or lipid, thermodynamic from solid, in castor oil): 2140 ± 70 µg/mL (≈ 4150 µM)
solubility at 3 days ([2]; oil or lipid, thermodynamic from solid, in cotton seed oil): 980 ± 570 µg/mL (≈ 1900 µM)
solubility at 3 days ([2]; oil or lipid, thermodynamic from solid, in oleic acid): 5900 ± 50 µg/mL (≈ 11400 µM)
solubility at 3 days ([2]; oil or lipid, thermodynamic from solid, in peanut oil): 1950 ± 180 µg/mL (≈ 3780 µM)
solubility at 3 days ([2]; oil or lipid, thermodynamic from solid, in soybean oil): 800 ± 130 µg/mL (≈ 1550 µM)
solubility at 3 days ([2]; oil or lipid, thermodynamic from solid, in tricaprylin): 30 ± 10 µg/mL (≈ 58.2 µM)
Dispersibility ([3]; in Labrafac PG): evenly dispersed
Dispersibility ([3]; in Miglyol 812): Aggregated
Dispersibility ([3]; in castor oil): Aggregated
Dispersibility ([3]; in cotton seed oil): Aggregated
Dispersibility ([3]; in oleic acid): Re‐dispersible
Dispersibility ([3]; in peanut oil): Aggregated
Dispersibility ([3]; in soybean oil): Aggregated
solubility ([4]; isopropyl alcohol and distilled water (5:5, v/v) mixture, read-out: Solubility in dissolution medium): > 100 µg/mL
solubility ([4]; phosphate buffer / aqueous media pH 7.4, read-out: Solubility in phosphate buffer (pH 7.4)): 1.1 µg/mL (≈ 2.13 µM)
Structure (SMILES): C=C1[C@H](COC(=O)CCCCCCCCCCCCCCC)[C@@H](O)C[C@@H]1n1cnc2c(=O)[nH]c(N)nc21 [EV‐P, 2‐amino‐1,9‐dihydro‐9‐[(1S,3R,4S)‐4‐hydroxy‐3‐(hexadecanoyloxymethyl)‐2‐methylenecyclopentyl]‐6H‐purin‐6‐one]
Dispersibility ([3]; in tricaprylin): evenly dispersed; also recorded: Re‐dispersible
Aqueous solubility [5]: approximately 1.1 μg/mL

Structure (SMILES): CCCCCCCCCCCCCC(=O)OC(C)C [isopropyl myristate]
Elimination T 1/2 from injection site [6]: approximately 20 days

Structure (SMILES): Cc1nc2n(c(=O)c1CCN1CCC(c3noc4cc(F)ccc34)CC1)CCCC2O (centres unmarked) [paliperidone]
AUC after 1 day post‐dosing, times higher than IM injection with no treatment [7]: approximately 2.2 times
C max, times higher than IM injection with no treatment [7]: 1.5 times
